How the values were obtained:
[1] = Estrogenic activity in human Saos2 cells assessed as cell proliferation at 1 uM; format: ADME, cell-based; details: saos-2, 1 µM
[2] = Estrogenic activity in human Saos2 cells assessed as increase in alkaline phosphatase activity at 1 nM; format: ADME, cell-based; details: saos-2, 0.001 µM
MCF7 [3] = test: Estrogenic activity in human MCF7 cells assessed as cell proliferation at 0.1 nM by MTS assay relative to basal level; format: ADME, cell-based; details: mcf7, 0.0001 µM
MCF7 [4] = test: Estrogenic activity in human MCF7 cells assessed as cell proliferation at 0.01 uM by MTS assay relative to basal level; format: ADME, cell-based; details: mcf7, 0.01 µM
MCF7 [5] = test: Estrogenic activity in human MCF7 cells assessed as cell proliferation at 0.1 uM by MTS assay relative to basal level; format: ADME, cell-based; details: mcf7, 0.1 µM
MCF7 [6] = test: Estrogenic activity in human MCF7 cells assessed as cell proliferation at 1 uM by MTS assay relative to basal level; format: ADME, cell-based; details: mcf7, 1 µM
[7] = Lipophilicity, log P of the compound; format: physicochemical; details: octanol/water
[8] = target: T1, Steryl-sulfatase (Homo sapiens) (UniProt P08842); test: Inhibition of STS (unknown origin) expressed in HEK-293 cells assessed as transformation of [3H]-E1S into E1 at 1 uM by […]; format: cell-based; details: HEK293
T1 sequence (whole entry): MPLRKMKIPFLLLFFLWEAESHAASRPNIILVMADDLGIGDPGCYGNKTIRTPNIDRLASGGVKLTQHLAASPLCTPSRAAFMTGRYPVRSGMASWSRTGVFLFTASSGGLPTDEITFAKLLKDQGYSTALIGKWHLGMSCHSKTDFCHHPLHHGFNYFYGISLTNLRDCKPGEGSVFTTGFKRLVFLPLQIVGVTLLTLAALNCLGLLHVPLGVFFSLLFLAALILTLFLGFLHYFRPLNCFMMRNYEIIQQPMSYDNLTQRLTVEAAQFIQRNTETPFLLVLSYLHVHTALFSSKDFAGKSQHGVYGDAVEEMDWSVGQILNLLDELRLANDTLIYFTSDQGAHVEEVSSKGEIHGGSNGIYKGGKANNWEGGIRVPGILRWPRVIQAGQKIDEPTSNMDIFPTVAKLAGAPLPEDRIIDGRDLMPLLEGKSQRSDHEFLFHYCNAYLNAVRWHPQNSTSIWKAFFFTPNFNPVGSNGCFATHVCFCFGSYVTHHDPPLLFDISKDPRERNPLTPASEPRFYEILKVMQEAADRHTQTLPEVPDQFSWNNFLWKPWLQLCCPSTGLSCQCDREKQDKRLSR

[9] = target: T1, Steryl-sulfatase (Homo sapiens); test: Inhibition of STS (unknown origin) expressed in HEK-293 cells assessed as transformation of [3H]-E1S into E1 at 0.1 uM by […]; format: cell-based; details: HEK293

With C[C@]12CC[C@@H]3c4ccc(O)cc4CC[C@H]3[C@@H]1CC[C@@H]2O [ESTRADIOL] the Activity [1] was 144%, the Activity [2] was 148% and the Activity (MCF7 [3]) was 75.6%.

With CCN(Cc1ccncc1)c1ccc(C(=O)N2CCc3ccc(O)cc3C2)cc1 the Activity [1] was “Toxic”, the Activity [2] was 133% and the Activity (MCF7 [4]) was 0%. The Activity (MCF7 [5]) was 0% and the Activity (MCF7 [6]) was 0%.

In the case of CCN(Cc1cccnc1)c1ccc(C(=O)N2CCc3ccc(O)cc3C2)cc1, the Activity [1] is reported as “Toxic”, the Activity [2] is reported as 133% and the Activity (MCF7 [4]) is reported as 0%. It also gave an Activity (MCF7 [5]) of 2% and an Activity (MCF7 [6]) of 0%.

For CCCN(CCC)c1ccc(C(=O)N2CCc3ccc(OS(N)(=O)=O)cc3C2)cc1, the logP [7] was 3.07, the inhibition [8] was 84.7% and the inhibition [9] was 36.6%.

NS(=O)(=O)Oc1ccc2c(c1)CN(C(=O)c1ccc(N3CCC(Cc4ccccc4)CC3)cc1)CC2 gave a logP [7] of 3.87, an inhibition [8] of 81.3% and an inhibition [9] of 41.4%.

For O=C(c1ccc(N(Cc2ccccc2)Cc2ccco2)cc1)N1CCc2ccc(O)cc2C1, the Activity [1] was “Toxic”, the Activity [2] was 133% and the Activity (MCF7 [4]) was 0%. For the same compound, the Activity (MCF7 [5]) was 0% and the Activity (MCF7 [6]) was 7.7%.

For CN(C)CCN(CCN(C)C)c1cccc(C(=O)N2CCc3ccc(O)cc3C2)c1, the Activity (MCF7 [4]) was 0%, the Activity (MCF7 [5]) was 14.6% and the Activity (MCF7 [6]) was 84.1%.

CC/C(=C(\c1ccccc1)c1ccc(OCCN(C)C)cc1)c1ccccc1 [TAMOXIFEN] gave an Activity [2] of 143%.

With CC(C)CCN(CCC(C)C)c1ccc(C(=O)N2CCc3ccc(O)cc3C2)cc1 the Activity [1] was “Toxic”, the Activity [2] was 133% and the Activity (MCF7 [4]) was 0%. For the same compound, the Activity (MCF7 [5]) was 0% and the Activity (MCF7 [6]) was 0%.

With CCN(Cc1ccc(F)cc1)c1ccc(C(=O)N2CCc3ccc(O)cc3C2)cc1 the Activity [1] was “Toxic”, the Activity [2] was 152% and the Activity (MCF7 [4]) was 0%. It also gave an Activity (MCF7 [5]) of 0% and an Activity (MCF7 [6]) of 4.8%.

Work on CCN(Cc1ccc(Br)cc1)c1ccc(C(=O)N2CCc3ccc(O)cc3C2)cc1 yielded an Activity (MCF7 [4]) of 0%, an Activity (MCF7 [5]) of 10.6% and an Activity (MCF7 [6]) of 76.7%.

With CN(CCCN1CCCCC1)c1ccc(C(=O)N2CCc3ccc(O)cc3C2)cc1 the Activity (MCF7 [4]) was 0%, the Activity (MCF7 [5]) was 0% and the Activity (MCF7 [6]) was 0%.

Compound CN(C)CCCN(Cc1ccccc1)c1ccc(C(=O)N2CCc3ccc(O)cc3C2)cc1 has an Activity (MCF7 [4]) of 19.4%, an Activity (MCF7 [5]) of 18.3% and an Activity (MCF7 [6]) of 25.9%.

With CCN(Cc1ccc(Br)cc1)c1cccc(C(=O)N2CCc3ccc(O)cc3C2)c1 the Activity (MCF7 [4]) was 0%, the Activity (MCF7 [5]) was 0% and the Activity (MCF7 [6]) was 5.5%.

In the case of CN(CCN1CCCCC1)c1cccc(C(=O)N2CCc3ccc(O)cc3C2)c1, the Activity (MCF7 [4]) is reported as 0%, the Activity (MCF7 [5]) is reported as 0% and the Activity (MCF7 [6]) is reported as 5.3%.

In the case of CCN(Cc1cccc(Br)c1)c1ccc(C(=O)N2CCc3ccc(O)cc3C2)cc1, the Activity (MCF7 [4]) is reported as 1.8%, the Activity (MCF7 [5]) is reported as 0% and the Activity (MCF7 [6]) is reported as 18.3%.

With CCN(Cc1ccccc1)c1ccc(C(=O)N2CCc3ccc(OS(N)(=O)=O)cc3C2)cc1 the logP [7] was 3.08, the inhibition [8] was 83.6% and the inhibition [9] was 66.9%.

For O=C(c1cccc(N(CCO)Cc2ccccc2)c1)N1CCc2ccc(O)cc2C1, the Activity (MCF7 [4]) was 0.5%, the Activity (MCF7 [5]) was 3% and the Activity (MCF7 [6]) was 12%.

Work on CCN(Cc1cccnc1)c1cccc(C(=O)N2CCc3ccc(O)cc3C2)c1 yielded an Activity (MCF7 [4]) of 0%, an Activity (MCF7 [5]) of 0% and an Activity (MCF7 [6]) of 0%.

Work on CN(CCCN1CCCCC1)c1cccc(C(=O)N2CCc3ccc(O)cc3C2)c1 yielded an Activity (MCF7 [4]) of 2.9%, an Activity (MCF7 [5]) of 2.5% and an Activity (MCF7 [6]) of 19%.

With CCN(Cc1ccncc1)c1cccc(C(=O)N2CCc3ccc(O)cc3C2)c1 the Activity (MCF7 [4]) was 6%, the Activity (MCF7 [5]) was 0% and the Activity (MCF7 [6]) was 12.8%.

Compound CN(C)CCN(Cc1ccccc1)c1cccc(C(=O)N2CCc3ccc(O)cc3C2)c1 has an Activity (MCF7 [4]) of 4.1%, an Activity (MCF7 [5]) of 7.4% and an Activity (MCF7 [6]) of 30.5%.

O=C(c1cccc(N(Cc2ccccc2)Cc2ccco2)c1)N1CCc2ccc(O)cc2C1 gave an Activity (MCF7 [4]) of 44.9%, an Activity (MCF7 [5]) of 63.3% and an Activity (MCF7 [6]) of 80.7%.

O=C(c1ccc(N(CCCO)Cc2ccccc2)cc1)N1CCc2ccc(O)cc2C1 showed an Activity (MCF7 [4]) of 0%, an Activity (MCF7 [5]) of 0% and an Activity (MCF7 [6]) of 4%.

CN(C)CCCN(Cc1ccccc1)c1cccc(C(=O)N2CCc3ccc(O)cc3C2)c1 gave an Activity (MCF7 [4]) of 0%, an Activity (MCF7 [5]) of 0% and an Activity (MCF7 [6]) of 5.4%.

With CCCN(Cc1ccccc1)c1cccc(C(=O)N2CCc3ccc(O)cc3C2)c1 the Activity (MCF7 [4]) was 1.6%, the Activity (MCF7 [5]) was 0% and the Activity (MCF7 [6]) was 20.8%.

Work on CN(C)CCN(CCN(C)C)c1ccc(C(=O)N2CCc3ccc(O)cc3C2)cc1 yielded an Activity (MCF7 [4]) of 0%, an Activity (MCF7 [5]) of 0% and an Activity (MCF7 [6]) of 4.5%.

CC(C)CCN(CCC(C)C)c1cccc(C(=O)N2CCc3ccc(O)cc3C2)c1 showed an Activity (MCF7 [4]) of 0%, an Activity (MCF7 [5]) of 0% and an Activity (MCF7 [6]) of 10.6%.

For O=C(c1ccc(N2CCc3ccccc3C2)cc1)N1CCc2ccc(O)cc2C1, the Activity [1] was “Toxic”, the Activity [2] was 133% and the Activity (MCF7 [4]) was 0%. It also gave an Activity (MCF7 [5]) of 1.7% and an Activity (MCF7 [6]) of 6.3%.

Compound CCN(Cc1ccccn1)c1ccc(C(=O)N2CCc3ccc(O)cc3C2)cc1 has an Activity [1] of 140%, an Activity [2] of 147% and an Activity (MCF7 [4]) of 2.7%. It also gave an Activity (MCF7 [5]) of 0% and an Activity (MCF7 [6]) of 84%.

From ChEMBL document CHEMBL3132826, “Investigation of a tetrahydroisoquinoline scaffold as dual-action steroid sulfatase inhibitors generated by parallel solid-phase synthesis” (Medchemcomm, 2013)
